Laboratory results as given in PubChem BioAssay AID624436 (The Scripps Research Institute Molecular Screening Center, 2012).
Active and inactive are the calls of the source.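 How the source made its calls: active means no compound was called active, only the inactive limit is stated; inactive means inhibition below 30% at 50 µM.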

biological target: Serine/threonine-protein phosphatase PP1-alpha catalytic subunit (Homo sapiens) (UniProt P62136); test: inhibitors of PP1 catalytic subunit activity – biochemical, OMFP substrate, fluorescence, powder samples, round 5, selectivity assay for PP5 inhibitor project, late-stage follow-up (AID 624436); conditions: purified PP1alpha, OMFP dephosphorylation fluorescence; at 50 µM; active compounds read high
Sequence (P62136 whole entry, looked up): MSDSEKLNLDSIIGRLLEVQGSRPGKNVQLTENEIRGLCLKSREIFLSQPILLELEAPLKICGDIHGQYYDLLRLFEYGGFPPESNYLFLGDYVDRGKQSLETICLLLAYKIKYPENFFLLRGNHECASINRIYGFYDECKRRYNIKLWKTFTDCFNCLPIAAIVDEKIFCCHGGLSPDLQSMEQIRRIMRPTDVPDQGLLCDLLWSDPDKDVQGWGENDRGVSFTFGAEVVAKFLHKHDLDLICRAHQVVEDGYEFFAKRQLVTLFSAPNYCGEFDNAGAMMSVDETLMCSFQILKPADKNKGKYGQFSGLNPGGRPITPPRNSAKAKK

Row | Structure (SMILES) | inhibition
1 | CCOc1ccccc1-c1n[nH]nc1C(=O)O | 15.5% (inactive)
2 | O=C(O)c1n[nH]nc1-c1ccccc1C(F)(F)F | 7% (inactive)
3 | Cc1ccccc1-c1n[nH]nc1C(=O)O | 10.4% (inactive)
4 | O=C(O)c1n[nH]nc1-c1cccnc1 | 1.43% (inactive)
5 | CC(C)c1ccccc1-c1n[nH]nc1C(=O)O | 3.75% (inactive)
6 | CCc1ccccc1-c1n[nH]nc1C(=O)O | 2.41% (inactive)
7 | O=C(O)c1n[nH]nc1-c1ccccc1-c1ccccc1 | 0.415% (inactive)
8 | O=C(O)c1n[nH]nc1-c1ccccn1 | 8.42% (inactive)
9 | O=C(O)c1[nH]ccc1-c1ccccc1 | 4.43% (inactive)
10 | Cc1cccc(C)c1-c1n[nH]nc1C(=O)O | 6.84% (inactive)
11 | CC(C)Oc1ccccc1-c1n[nH]nc1C(=O)O | 9.97% (inactive)
